Measurements taken from patent publication US20260209219A1, “SUBSTITUTED TETRAHYDROPYRROLO-PYRIDINONE COMPOUNDS AND THEIR USE IN TREATING MEDICAL CONDITIONS” (Karuna Therapeutics, Inc., priority 2022, published 2026).

Tests used:
[1] = target: T1, hM4 receptors (Homo sapiens, UniProt P08173); experiment: Human M4 PAM pERK assay; type: cell-based; conditions: CHO cells expressing hM4; with EC20 of acetylcholine (10 nM final)
T1 construct: expressed in transfected cells; host or cells: CHO cells
T1 sequence (P08173 1-479): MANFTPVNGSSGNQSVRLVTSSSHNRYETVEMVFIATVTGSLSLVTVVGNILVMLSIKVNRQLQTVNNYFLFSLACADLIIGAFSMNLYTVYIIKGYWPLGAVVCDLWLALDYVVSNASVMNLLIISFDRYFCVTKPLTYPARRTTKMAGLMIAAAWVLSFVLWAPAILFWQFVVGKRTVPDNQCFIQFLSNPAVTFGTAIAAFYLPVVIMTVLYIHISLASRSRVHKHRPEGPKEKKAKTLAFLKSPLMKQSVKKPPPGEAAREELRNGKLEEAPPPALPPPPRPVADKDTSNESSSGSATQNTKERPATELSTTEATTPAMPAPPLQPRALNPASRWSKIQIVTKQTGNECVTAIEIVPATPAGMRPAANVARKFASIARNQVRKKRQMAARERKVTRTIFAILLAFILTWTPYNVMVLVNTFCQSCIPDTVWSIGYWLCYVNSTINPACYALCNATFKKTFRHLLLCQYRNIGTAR
Description: (§1) Chinese hamster ovary (CHO) cells expressing either hM4 or rM4 receptors were frozen in assay ready vials (5×10^6 cells/vial) after bulking-up in culture. The day before an assay, vial(s) were thawed and cells seeded in 384 well white proxiplates at 1000/well for hM4 cells and at 2000/well for rM4 cells, in 10 μL of growth media (Hams/F12 with glutamax and 10% FCS) and incubated overnight at 37° C./5% CO2.
(§2) On the following morning, the growth media was removed by ‘flicking out’ over a bin, patting the inverted plate onto tissue, and then replacing with 10 μL of wash media (Hams/F12 with glutamax and 8 mM HEPES, NB: serum free). Then, the wash media was removed in the same way and replaced with 8 μL/well of the serum free media. Plates were then re-incubated for a further 4 hours at 37° C./5% CO2.
(§3) Compounds for testing were solubilized to 10 mM in DMSO and compound addition plates, consisting of ten-point concentration response curves (CRC) in duplicate points (10 μM top concentration, ½ log dilution series), were prepared by acoustic dispensing and the compound management group.
(§4) After the 4-hour incubation in serum free media, a 4 μL aliquot of the 3× compound solution containing an EC20 of acetylcholine (10 nM final concentration) was added to the cell plate using a 384 well plate to plate transfer. Then, the plate lid was replaced, and the cells incubated for 5 mins at 37° C./5% CO2. Following this final incubation, all cellular processes were stopped by the addition of 4 μL/well of lysis and blocking buffer and plates were incubated for 30 minutes at RT on an orbital shaker (gentle setting). Then, a final addition of 4 μL/well of antibody detection mix, containing both the Europium-Cryptate (donor) and d2 (acceptor) tagged detection components, was added followed by a further 2-hour incubation at RT, and then the plate was read using a TR-FRET (time resolved fluorescence resonance energy transfer) based protocol.

[2] = target: T2, rM4 receptors (Rattus norvegicus, UniProt P08485); experiment: Rat M4 PAM pERK assay; type: cell-based; conditions: CHO cells expressing rM4; with EC20 of acetylcholine (10 nM final)
T2 construct: expressed in transfected cells; host or cells: CHO cells
T2 sequence (P08485 1-478): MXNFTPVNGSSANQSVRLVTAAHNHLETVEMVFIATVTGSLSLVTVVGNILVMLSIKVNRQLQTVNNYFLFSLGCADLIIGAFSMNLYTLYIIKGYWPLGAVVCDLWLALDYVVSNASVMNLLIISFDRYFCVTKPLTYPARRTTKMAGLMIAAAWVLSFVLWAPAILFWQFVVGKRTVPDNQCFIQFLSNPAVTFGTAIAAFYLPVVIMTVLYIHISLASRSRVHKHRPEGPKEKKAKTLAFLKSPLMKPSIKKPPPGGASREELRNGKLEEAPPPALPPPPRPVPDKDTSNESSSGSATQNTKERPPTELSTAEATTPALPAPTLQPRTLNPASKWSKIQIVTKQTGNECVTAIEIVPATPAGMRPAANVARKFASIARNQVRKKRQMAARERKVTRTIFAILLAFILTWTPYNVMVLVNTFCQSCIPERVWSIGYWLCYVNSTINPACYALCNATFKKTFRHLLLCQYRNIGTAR
Description: as §1, §2, §3, §4

[3] = target: T3, human M4 receptor (Homo sapiens, UniProt P08173); experiment: M4 GTPγS PAM assay; type: biochemical; conditions: membranes of CHO-K1 cells stably expressing human M4; EC20 acetylcholine 40 nM
T3 construct: expressed in transfected cells; host or cells: CHO-K1 cells (membrane preparation)
T3 sequence (P08173 1-479): T1 sequence (P08173 1-479)
Description: The M4 GTPγS PAM method was used. Membranes were prepared for GTPgS binding assays from CHO-K1 cells stably expressing human M4 receptor. Briefly, cells were grown in 5-layer cell culture flasks. Cells were washed with 50 mL of PBS and then dissociated with 0.05% trypsin. Dissociated cells were then collected by centrifugation at 650×g for 8 minutes at 4° C. Pellets were washed again in PBS by centrifugation and resuspended in 30 mL of 20 mM HEPES, 10 mM EDTA, pH 7.4. After sitting on ice for 30 min, membranes were collected by centrifugation at 50000×g for 15′ at 4° C., resuspended in 30 mL of 20 mM HEPES, 0.1 mM EDTA, pH 7.4 and collected again by centrifugation. Pellets were then washed twice by centrifugation in 30 mL of 20 mM HEPES, pH 7.4, and stored at −80° C. until the day of the assay. On the day of the assay, pellets were thawed on ice and resuspended in 1 mL of 20 mM HEPES, pH 7.4, 10 mM MgCl2, 100 mM NaCl using dounce homogenization. Membrane protein concentration is determined by BCA protein assay (Promega, Madison, WI) according to Promega guidelines.
On the day of the assay, serial dilutions of test PAM compounds were brought up in assay buffer (20 mM HEPES, 10 mM MgCl2, 100 mM NaCl) at 4× final assay concentration. […] of membrane homogenates (containing […] of membrane protein) were prepared in assay buffer supplemented with GDP at 4× final assay concentration (final assay concentration of GDP is 5 μM for M2 and 0.1 μM for M4) and dispensed into 96 well polypropylene, U-bottom Greiner plates. […] of vehicle or test PAM compound at 4× of final assay concentration diluted in the assay buffer were added to membrane and plates are incubated for 10-15 minutes at room temperature with gentle shaking. Then, […] of EC20 acetylcholine in assay buffer at 4× final assay concentration was added to assay plates (EC20 final assay concentrations was 40 nM for human M4).
Plates were then incubated, with shaking, for an additional 10-15 minutes. 25 mL of 0.4 nM ^35S-GTP (Perkin Elmer, Waltham, MA) in assay buffer was added to assay mixtures. The binding reaction is left on the shaker for 1 hour at room temperature. Membranes in assay reactions were then transferred to GF/C filter plates (Unifilter, Perkin Elmer) and washed three times using a FilterMate Harvester (Perkin Elmer) with cold assay buffer containing no GDP. Filter plates were then dried at 40° C. overnight followed by the addition of […] of Beta Plate Scintillation liquid. Plates are top and bottom sealed before being read on TopCount scintillation counter (Perkin Elmer, Waltham, MA).

| Structure (SMILES) | EC50 [1] [nM] | EC50 [2] [nM] | EC50 [3] [nM] |
| --- | --- | --- | --- |
| Cc1cc(=O)n(C)c2c1CN(C(=O)CC1CC1c1ccnc(C(F)(F)F)c1)C2 (single isomer, unassigned) [Compound I-1, 1,4-Dimethyl-6-[trans-(2-(2-(2-(trifluoromethyl)pyridin-4-yl)cyclopropyl)]acetyl)-1,5,6,7-tetrahydro-2H-pyrrolo[3,4-b]pyridin-2-one] | > 2000 | – | – |
| Cc1cc(=O)n(C)c2c1CN(C(=O)CC1CC1c1cccc(C3COC3)c1)C2 (single isomer, unassigned) [Compound I-14] | 100 to 500 | 100 to 500 | – |
| Cc1cc(=O)n(C)c2c1CN(C(=O)CC1CC1c1ccc(S(=O)(=O)C(F)(F)F)cc1)C2 (single isomer, unassigned) [Compound I-9] | 100 to 500 | 100 to 500 | – |
| Cc1c2c(n(C)c(=O)c1Cl)CN(C(=O)CC1CC1c1cc(F)cc(F)c1)C2 (centres unmarked) [Compound I-34] | < 100 | < 100 | < 100 |
| Cc1c2c(n(C)c(=O)c1C)CN(C(=O)C[C@@H]1C[C@H]1c1ccc(C(F)(F)F)cc1)C2 (relative stereo) [Compound I-18, 1,3,4-Trimethyl-6-([trans-2-(2-(4-(trifluoromethyl)phenyl)cyclopropyl)]acetyl)-1,5,6,7-tetrahydro-2H-pyrrolo[3,4-b]pyridin-2-one] | 100 to 500 | 100 to 500 | 100 to 500 |
| Cc1cc(=O)n(C)c2c1CN(C(=O)CC1CC1c1ccc(C(F)(F)F)cc1)C2 (single isomer, unassigned) [Compound I-6] | > 2000 | > 2000 | > 2000 |
| Cc1cc(=O)n(C)c2c1CN(C(=O)CC1CC1c1ccnc(C(F)(F)F)c1)C2 (single isomer, unassigned) [Compound I-2] | < 100 | 500 to 2000 | – |
| Cc1c2c(n(C)c(=O)c1Cl)CN(C(=O)CC1CC1c1cc(F)cc(F)c1)C2 (single isomer, unassigned) [Compound I-35] | 500 to 2000 | > 2000 | > 2000 |
| Cc1c2c(n(C)c(=O)c1C)CN(C(=O)CC1CC1c1cc(F)cc(F)c1)C2 (single isomer, unassigned) [Compound I-23] | < 100 | < 100 | < 100 |
| Cc1c2c(n(C)c(=O)c1Cl)CN(C(=O)CC1CC1c1ccc(C(F)(F)F)cc1)C2 (single isomer, unassigned) [Compound I-32] | 500 to 2000 | 500 to 2000 | 100 to 500 |
| Cc1c2c(n(C)c(=O)c1Cl)CN(C(=O)C[C@@H]1C[C@H]1c1ccc(C(F)(F)F)cc1)C2 (relative stereo) [Compound I-31, 3-Chloro-1,4-dimethyl-6-([trans-2-(2-(4-(trifluoromethyl)phenyl)cyclopropyl)]acetyl)-1,5,6,7-tetrahydro-2H-pyrrolo[3,4-b]pyridin-2-one] | 100 to 500 | 100 to 500 | 100 to 500 |
| Cc1c2c(n(C)c(=O)c1C)CN(C(=O)CC1CC1c1cc(F)cc(F)c1)C2 (centres unmarked) [Compound I-21] | < 100 | 100 to 500 | < 100 |
| Cc1c2c(n(C)c(=O)c1F)CN(C(=O)CC1CC1c1cc(F)cc(F)c1)C2 (single isomer, unassigned) [Compound I-28] | < 100 | < 100 | – |
| Cc1cc(=O)n(C)c2c1CN(C(=O)CC1CC1c1ccc(C3COC3)cc1)C2 (centres unmarked) [Compound I-15] | 100 to 500 | 500 to 2000 | – |
| Cc1c2c(n(C)c(=O)c1Cl)CN(C(=O)CC1CC1c1cc(F)cc(F)c1)C2 (single isomer, unassigned) [Compound I-36] | < 100 | < 100 | < 100 |
| Cc1c2c(n(C)c(=O)c1Cl)CN(C(=O)CC1CC1c1ccc(C(F)(F)F)cc1)C2 (single isomer, unassigned) [Compound I-33] | < 100 | < 100 | < 100 |
| Cc1c2c(n(C)c(=O)c1C)CN(C(=O)CC1CC1c1ccc(C(F)(F)F)cc1)C2 (single isomer, unassigned) [Compound I-20] | 100 to 500 | 100 to 500 | – |
| COc1c2c(n(C)c(=O)c1C)CN(C(=O)CC1CC1c1ccc(C(F)(F)F)cc1)C2 (centres unmarked) [Compound I-30] | > 2000 | 500 to 2000 | > 2000 |
| Cc1cc(=O)n(C)c2c1CN(C(=O)CC1CC1c1ccc(C(F)(F)F)nc1)C2 (single isomer, unassigned) [Compound I-4] | > 2000 | > 2000 | > 2000 |
| Cc1cc(=O)n(C)c2c1CN(C(=O)CC1CC1c1ccc(C3COC3)cc1)C2 (single isomer, unassigned) [Compound I-17] | < 100 | 100 to 500 | – |
| COCCc1ccc(C2CC2CC(=O)N2Cc3c(C)cc(=O)n(C)c3C2)cc1 (centres unmarked) [Compound I-11] | 100 to 500 | 500 to 2000 | – |
| Cc1cc(=O)n(C)c2c1CN(C(=O)CC1CC1c1ccc(S(=O)(=O)C(F)(F)F)cc1)C2 (single isomer, unassigned) [Compound I-8] | > 2000 | > 2000 | – |
| Cc1c2c(n(C)c(=O)c1C)CN(C(=O)CC1CC1c1ccc(C(F)(F)F)cc1)C2 (single isomer, unassigned) [Compound I-19] | > 2000 | > 2000 | – |
| Cc1cc(=O)n(C)c2c1CN(C(=O)CC1CC1c1ccc(C3COC3)cc1)C2 (single isomer, unassigned) [Compound I-16] | > 2000 | > 2000 | – |
